Measurements reported in publication PMC8791557 (Environment international, 2021).
Where two headings read alike, the source gives them in different places.

Tests used:
[1] = type: in vivo, human; settings: for k1e / k12 / k21 / ka / α / β: two-compartmental model; for Tmax of metabolite: median
[2] = human, in vivo; cited from earlier work
[3] = 50 ng [14C]-BaP oral, mean ± SD
[4] = 100 ng [14C]-BaP oral, mean ± SD
[5] = 250 ng [14C]-BaP oral, mean ± SD
[6] = metabolite in plasma after 25 ng [14C]-BaP oral
[7] = metabolite in plasma after 50 ng [14C]-BaP oral
[8] = metabolite in plasma after 100 ng [14C]-BaP oral
[9] = metabolite in plasma after 250 ng [14C]-BaP oral

c1ccc2c(c1)cc1ccc3cccc4ccc2c1c34 [[^14C]-BaP, Benzo[a]pyrene]
k1e ([1]; 25 ng [14C]-BaP oral, n = 1): 0.0068 NA 1/h | k12 ([1]; 25 ng [14C]-BaP oral, n = 1): 0.331 NA 1/h | k21 ([1]; 25 ng [14C]-BaP oral, n = 1): 0.028 NA 1/h | ka ([1]; 25 ng [14C]-BaP oral, n = 1): 592 NA 1/h | α ([1]; 25 ng [14C]-BaP oral, n = 1): 0.366 NA 1/h | β ([1]; 25 ng [14C]-BaP oral, n = 1): 5.03 × 10^−4 NA 1/h | k1e [1, 3]: 0.694 ± 0.412 n = 5 1/h | k12 [1, 3]: 0.83 ± 1.11 n = 5 1/h | k21 [1, 3]: 0.270 ± 0.253 n = 5 1/h | ka [1, 3]: 1.30 × 10^7 ± 2.90 × 10^7 n = 5 1/h | α [1, 3]: 1.69 ± 0.89 n = 5 1/h | β [1, 3]: 0.105 ± 0.164 n = 5 1/h | k1e [1, 4]: 0.558 ± 0.897 n = 6 1/h | k12 [1, 4]: 2.60 ± 3.45 n = 6 1/h | k21 [1, 4]: 0.190 ± 0.180 n = 6 1/h | ka [1, 4]: 3.52 ± 4.75 n = 6 1/h | α [1, 4]: 3.33 ± 4.28 n = 6 1/h | β [1, 4]: 0.020 ± 0.021 n = 6 1/h | k1e [1, 5]: 1.25 ± 1.71 n = 7 1/h | k12 [1, 5]: 4.27 ± 6.92 n = 7 1/h | k21 [1, 5]: 0.290 ± 0.564 n = 7 1/h | ka [1, 5]: 43.2 ± 111 n = 7 1/h | α [1, 5]: 5.80 ± 6.64 n = 7 1/h | β [1, 5]: 0.014 ± 0.019 n = 7 1/h | increase of compartmental model apparent volume of distribution ([1]; both, human, in vivo): 4.6 × | increase of mean non-compartmental apparent volume of distribution ([1]; both, human, in vivo): 15 × | Tmax ([1]; both, human, in vivo, Tmax): 0.5 to 1 h | half-life ([1]; both, human, in vivo, average half-life across doses): 46.5 ± 58.2 h | Tmax ([1]; both, human, in vivo, median Tmax): 0.5 h | Tmax ([1]; both, human, in vivo, po, Tmax (Median)): 0.5 h | Tmax ([1]; both, human, in vivo, po, Tmax (Range)): 0.5 to 4 h | Tmax ([1]; both, human, in vivo, po, median Tmax): 0.5 h | half-life ([1]; both, human, in vivo, po, α half-life): 0.484 ± 0.187 h | AUC0–48h, range of dose-group means ([1]; human, in vivo): 12.2 ± 14.5 to 88.5 ± 14.1 | Cmax, range of dose-group means ([1]; human, in vivo): 2.51 ± 2.53 to 13.8 ± 9.52 | Clearance ([1]; human, in vivo, po): 811 n = 1 L/h | half-life ([1]; human, in vivo, po, Half-life): 4.31 h | half-life ([1]; human, in vivo, po, α half-life): 1.89 h | half-life ([1]; human, in vivo, po, β half-life): 1310 h | Tmax [2]: 0.75 to 1.0 h

Oc1ccc2ccc3c4ccccc4cc4ccc1c2c43 [3-OH, 3 - OH BaP]
Tmax of metabolite [1, 6]: 1.0 h | Tmax of metabolite [1, 7]: 1.25 h | Tmax of metabolite [1, 8]: 1.0 h | Tmax of metabolite [1, 9]: 1.5 h

Oc1ccc2cc3ccc4cccc5ccc(c2c1)c3c45 [9-OH, 9 - OH BaP]
Tmax of metabolite [1, 6]: 0.5 h | Tmax of metabolite [1, 7]: 1.0 h | Tmax of metabolite [1, 8]: 1.0 h | Tmax of metabolite [1, 9]: 0.75 h
